Assay results reported in patent US9029404B2, “Apoptosis-inducing agents for the treatment of cancer and immune and autoimmune diseases” (AbbVie Inc., priority 2008, dated 2015).

Each molecule was assayed against GST-Bcl-2 (Homo sapiens, UniProt P10415) (assay: Time Resolved-Fluorescence Resonance Energy Transfer (TR-FRET) Bcl-2 binding assay). Conditions: competition with F-Bak peptide probe (100 nM); GST-Bcl-2 1 nM; Tb-anti-GST 1 nM; 3 hours at room temperature; Wang's equation.
Procedure: Determination of the utility of compounds having Formula (I) as binders to and inhibitors of anti-apoptotic Bcl-2 proteins was performed using the Time Resolved-Fluorescence Resonance Energy Transfer (TR-FRET) Assay. Tb-anti-GST antibody was purchased from Invitrogen (Catalog No. PV4216).
(§1) Representative compounds were serially diluted in dimethyl sulfoxide (DMSO) starting at 50 μM (2× starting concentration; 10% DMSO) and 10 μL were transferred into a 384-well plate. The samples are then mixed on a shaker for 1 minute and incubated for an additional 3 hours at room temperature. For each assay, the probe/antibody and protein/probe/antibody were included on each assay plate as negative and positive controls, respectively. Fluorescence was measured on the Envision (Perkin Elmer) using a 340/35 nm excitation filter and 520/525 (F-Bak peptide) and 495/510 nm (Tb-labeled anti-Histidine antibody) emission filters.
as §1, with “The” for “Representative compounds were serially diluted in dimethyl sulfoxide (DMSO) starting at 50 μM (2× starting concentration; 10% DMSO) and 10 μL were transferred into a 384-well plate. The”, “were” for “are”
The inhibition constant (Ki) is the dissociation constant of an enzyme-inhibitor complex or a protein/small molecule complex, wherein the small molecule is inhibiting binding of one protein to another protein. So a large Ki value indicates a low binding affinity and a small Ki value indicates a high binding affinity.

GST-Bcl-2, sequence (P10415 whole entry): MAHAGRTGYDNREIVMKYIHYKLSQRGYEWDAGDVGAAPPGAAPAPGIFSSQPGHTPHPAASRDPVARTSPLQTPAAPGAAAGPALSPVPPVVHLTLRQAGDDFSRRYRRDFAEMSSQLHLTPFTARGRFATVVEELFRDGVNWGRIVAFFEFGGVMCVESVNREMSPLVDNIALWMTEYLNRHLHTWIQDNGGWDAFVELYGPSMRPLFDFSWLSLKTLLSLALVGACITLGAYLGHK

| SMILES | Ki [pM] |
| --- | --- |
| CN1CCC(C)(Nc2ccc(S(=O)(=O)NC(=O)c3ccc(N4CCN(CC5=C(c6ccc(Cl)cc6)CC(C)(C)CC5)CC4)cc3Oc3ccccc3Cl)cc2[N+](=O)[O-])CC1 [Example 168, 2-(2-chlorophenoxy)-4-(4-{[2-(4-chlorophenyl)-4,4-dimethylcyclohex-1-en-1-yl]methyl}piperazin-1-yl)-N-({4-[(1,4-dimethylpiperidin-4-yl)amino]-3-nitrophenyl}sulfonyl)benzamide] | 28300 |
| CC1(C)CCC(CN2CCN(c3ccc(C(=O)NS(=O)(=O)c4ccc(OC[C@H]5CC[C@@](C)(O)CC5)c([N+](=O)[O-])c4)c(Oc4cnc(N)c(Cl)c4)c3)CC2)=C(c2ccc(Cl)cc2)C1 [Example 436, 2-[(6-amino-5-chloropyridin-3-yl)oxy]-4-(4-{[2-(4-chlorophenyl)-4,4-dimethylcyclohex-1-en-1-yl]methyl}piperazin-1-yl)-N-({4-[(cis-4-hydroxy-4-methylcyclohexyl)methoxy]-3-nitrophenyl}sulfonyl)benzamide] | < 10 |
| CC1(C)CCC(CN2CCN(c3ccc(C(=O)NS(=O)(=O)c4ccc(NCC5CN(C6COC6)CCO5)c([N+](=O)[O-])c4)c(Oc4cnc(N)c(Cl)c4)c3)CC2)=C(c2ccc(Cl)cc2)C1 (stereo not shown) [Example 421, 2-[(6-amino-5-chloropyridin-3-yl)oxy]-4-(4-{[2-(4-chlorophenyl)-4,4-dimethylcyclohex-1-en-1-yl]methyl}piperazin-1-yl)-N-{[3-nitro-4-({[4-(oxetan-3-yl)morpholin-2-yl]methyl}amino)phenyl]sulfonyl}benzamide] | < 10 |
| Cn1c(=O)[nH]c2cccc(Oc3cc(N4CCN(CC5=C(c6ccc(Cl)cc6)CC(C)(C)CC5)CC4)ccc3C(=O)NS(=O)(=O)c3ccc(OCC4CCOCC4)c(Cl)c3)c21 [Example 438, 4-(4-{[2-(4-chlorophenyl)-4,4-dimethylcyclohex-1-en-1-yl]methyl}piperazin-1-yl)-N-{[3-chloro-4-(tetrahydro-2H-pyran-4-ylmethoxy)phenyl]sulfonyl}-2-[(3-methyl-2-oxo-2,3-dihydro-1H-benzimidazol-4-yl)oxy]benzamide] | 31 |
| Cn1c(=O)[nH]c2cccc(Oc3cc(N4CCN(CC5=C(c6ccc(Cl)cc6)CC(C)(C)CC5)CC4)ccc3C(=O)NS(=O)(=O)c3ccc(OCC4(F)CCOCC4)c([N+](=O)[O-])c3)c21 [Example 426, 4-(4-{[2-(4-chlorophenyl)-4,4-dimethylcyclohex-1-en-1-yl]methyl}piperazin-1-yl)-N-({4-[(4-fluorotetrahydro-2H-pyran-4-yl)methoxy]-3-nitrophenyl}sulfonyl)-2-[(3-methyl-2-oxo-2,3-dihydro-1H-benzimidazol-4-yl)oxy]benzamide] | < 10 |
| CC1(C)CCC(CN2CCN(c3ccc(C(=O)NS(=O)(=O)c4ccc(NCC5(F)CCOCC5)c([N+](=O)[O-])c4)c(Oc4cccc5[nH]nc(N)c45)c3)CC2)=C(c2ccc(Cl)cc2)C1 [Example 428, 2-[(3-amino-1H-indazol-4-yl)oxy]-4-(4-{[2-(4-chlorophenyl)-4,4-dimethylcyclohex-1-en-1-yl]methyl}piperazin-1-yl)-N-[(4-{[(4-fluorotetrahydro-2H-pyran-4-yl)methyl]amino}-3-nitrophenyl)sulfonyl]benzamide] | < 10 |
| CC1(C)CCC(CN2CCN(c3ccc(C(=O)NS(=O)(=O)c4cnc(OCC5(F)CCC(C)(O)CC5)c(Cl)c4)c(Oc4cnc(N)c(Cl)c4)c3)CC2)=C(c2ccc(Cl)cc2)C1 (stereo not drawn) [Example 444, 2-[(6-amino-5-chloropyridin-3-yl)oxy]-N-({5-chloro-6-[(cis-1-fluoro-4-hydroxy-4-methylcyclohexyl)methoxy]pyridin-3-yl}sulfonyl)-4-(4-{[2-(4-chlorophenyl)-4,4-dimethylcyclohex-1-en-1-yl]methyl}piperazin-1-yl)benzamide] | 18 |
| CC1(C)CCC(CN2CCN(c3ccc(C(=O)NS(=O)(=O)c4ccc(NC[C@H]5CN(C6COC6)CCO5)c([N+](=O)[O-])c4)c(Oc4cnc(N)c(Cl)c4)c3)CC2)=C(c2ccc(Cl)cc2)C1 [Example 448, 2-[(6-amino-5-chloropyridin-3-yl)oxy]-4-(4-{[2-(4-chlorophenyl)-4,4-dimethylcyclohex-1-en-1-yl]methyl}piperazin-1-yl)-N-{[3-nitro-4-({[(2S)-4-(oxetan-3-yl)morpholin-2-yl]methyl}amino)phenyl]sulfonyl}benzamide] | < 10 |
| CC1(C)CCC(CN2CCN(c3ccc(C(=O)NS(=O)(=O)c4ccc(NC[C@H]5CC[C@H](N6CCOCC6)CC5)c([N+](=O)[O-])c4)c(Oc4cnc(N)c(Cl)c4)c3)CC2)=C(c2ccc(Cl)cc2)C1 [Example 451, 2-[(6-amino-5-chloropyridin-3-yl)oxy]-4-(4-{[2-(4-chlorophenyl)-4,4-dimethylcyclohex-1-en-1-yl]methyl}piperazin-1-yl)-N-{[4-({[trans-4-(morpholin-4-yl)cyclohexyl]methyl}amino)-3-nitrophenyl]sulfonyl}benzamide] | < 10 |
| CC1(C)CCC(CN2CCN(c3ccc(C(=O)NS(=O)(=O)c4ccc(N[C@H]5CC[C@@H](N6CCOCC6)CC5)c([N+](=O)[O-])c4)c(Oc4cnc(N)c(Cl)c4)c3)CC2)=C(c2ccc(Cl)cc2)C1 [Example 452, 2-[(6-amino-5-chloropyridin-3-yl)oxy]-4-(4-{[2-(4-chlorophenyl)-4,4-dimethylcyclohex-1-en-1-yl]methyl}piperazin-1-yl)-N-[(4-{[cis-4-(morpholin-4-yl)cyclohexyl]amino}-3-nitrophenyl)sulfonyl]benzamide] | 112 |
| CC1(C)CCC(CN2CCN(c3ccc(C(=O)NS(=O)(=O)c4ccc(NC[C@H]5CN(C6CC6)CCO5)c([N+](=O)[O-])c4)c(Oc4cnc(N)c(Cl)c4)c3)CC2)=C(c2ccc(Cl)cc2)C1 [Example 442, 2-[(6-amino-5-chloropyridin-3-yl)oxy]-4-(4-{[2-(4-chlorophenyl)-4,4-dimethylcyclohex-1-en-1-yl]methyl}piperazin-1-yl)-N-{[4-({[(2S)-4-cyclopropylmorpholin-2-yl]methyl}amino)-3-nitrophenyl]sulfonyl}benzamide] | < 10 |
| CC(C)(C)OC(=O)N1CCC(c2ccc(Cl)cc2)=C(CN2CCN(c3ccc(C(=O)NS(=O)(=O)c4cnc(OCC5(F)CCOCC5)c(Cl)c4)c(Oc4cc5cc[nH]c5cc4F)c3)CC2)C1 [Example 416, tert-butyl 5-[(4-{4-[({5-chloro-6-[(4-fluorotetrahydro-2H-pyran-4-yl)methoxy]pyridin-3-yl}sulfonyl)carbamoyl]-3-[(6-fluoro-1H-indol-5-yl)oxy]phenyl}piperazin-1-yl)methyl]-4-(4-chlorophenyl)-3,6-dihydropyridine-1(2H)-carboxylate] | 7440 |
| CC1(C)CCC(CN2CCN(c3ccc(C(=O)NS(=O)(=O)c4ccc(OCC5CCC6(CC5)COC6)c([N+](=O)[O-])c4)c(Oc4cnc(N)c(Cl)c4)c3)CC2)=C(c2ccc(Cl)cc2)C1 [Example 440, 2-[(6-amino-5-chloropyridin-3-yl)oxy]-4-(4-{[2-(4-chlorophenyl)-4,4-dimethylcyclohex-1-en-1-yl]methyl}piperazin-1-yl)-N-{[3-nitro-4-(2-oxaspiro[3.5]non-7-ylmethoxy)phenyl]sulfonyl}benzamide] | 22 |
